Assay results as given in PubChem BioAssay (NCI).
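Method: 48-hour compound exposure of cells in 96-well plates, five concentrations, linear interpolation of endpoints. At the GI50, growth is halved. Definition used: TGI = concentration required for complete inhibition of growth.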

Legend:
Experiment in all cases: NCI-60 cell line screen, 48 h
NCI/ADR-RES ovarian = system: NCI/ADR-RES ovarian
OVCAR-4 ovarian = system: OVCAR-4 ovarian
HCC-2998 colon = system: HCC-2998 colon
U251 CNS = system: U251 CNS
CAKI-1 renal = system: CAKI-1 renal
SF-268 CNS = system: SF-268 CNS
MALME-3M melanoma = system: MALME-3M melanoma
SNB-75 CNS = system: SNB-75 CNS
EKVX NSCLC = system: EKVX NSCLC
HOP-92 NSCLC = system: HOP-92 NSCLC
HL-60(TB) leukemia = system: HL-60(TB) leukemia
MDA-MB-468 breast = system: MDA-MB-468 breast
OVCAR-3 ovarian = system: OVCAR-3 ovarian
SNB-19 CNS = system: SNB-19 CNS
CCRF-CEM leukemia = system: CCRF-CEM leukemia
DU-145 prostate = system: DU-145 prostate
ACHN renal = system: ACHN renal
HCT-116 colon = system: HCT-116 colon
BT-549 breast = system: BT-549 breast
RXF 393 renal = system: RXF 393 renal
UACC-62 melanoma = system: UACC-62 melanoma
NCI-H226 lung = system: NCI-H226 lung
COLO 205 colon = system: COLO 205 colon
SK-MEL-28 melanoma = system: SK-MEL-28 melanoma
NCI-H460 lung = system: NCI-H460 lung
M14 melanoma = system: M14 melanoma
LOX IMVI melanoma = system: LOX IMVI melanoma
KM12 colon = system: KM12 colon
UACC-257 melanoma = system: UACC-257 melanoma
SN12C renal = system: SN12C renal
PC-3 prostate = system: PC-3 prostate
OVCAR-5 ovarian = system: OVCAR-5 ovarian
TK-10 renal = system: TK-10 renal
K-562 leukemia = system: K-562 leukemia
MCF7 breast = system: MCF7 breast
HT29 colon = system: HT29 colon
HS 578T breast = system: HS 578T breast
A498 renal = system: A498 renal
MDA-MB-231 breast = system: MDA-MB-231 breast
IGROV1 ovarian = system: IGROV1 ovarian
OVCAR-8 ovarian = system: OVCAR-8 ovarian
SF-539 CNS = system: SF-539 CNS
HOP-62 NSCLC = system: HOP-62 NSCLC
RPMI-8226 leukemia = system: RPMI-8226 leukemia
MDA-MB-435 = system: MDA-MB-435
SF-295 CNS = system: SF-295 CNS
SK-OV-3 ovarian = system: SK-OV-3 ovarian
T-47D breast = system: T-47D breast
SW-620 colon = system: SW-620 colon
SK-MEL-5 melanoma = system: SK-MEL-5 melanoma
A549 NSCLC = system: A549 NSCLC
NCI-H23 lung = system: NCI-H23 lung
786-0 renal = system: 786-0 renal
NCI-H522 lung = system: NCI-H522 lung
MOLT-4 leukemia = system: MOLT-4 leukemia
HCT-15 colon = system: HCT-15 colon
SK-MEL-2 melanoma = system: SK-MEL-2 melanoma
UO-31 renal = system: UO-31 renal

N/C(=N\c1nc2ccccc2s1)NC(=O)Nc1ccccc1F
GI50 (NCI/ADR-RES ovarian): 364 nM | TGI (NCI/ADR-RES ovarian): 3.11 µM | GI50 (OVCAR-4 ovarian): 10.9 µM | TGI (OVCAR-4 ovarian): 39 µM | GI50 (HCC-2998 colon): 1680 nM | TGI (HCC-2998 colon): 23.1 µM | GI50 (U251 CNS): 468 nM | TGI (U251 CNS): 14.4 µM | GI50 (CAKI-1 renal): 525 nM | TGI (CAKI-1 renal): 15.9 µM | GI50 (SF-268 CNS): 3.54 µM | TGI (SF-268 CNS): > 100 µM | GI50 (MALME-3M melanoma): 1210 nM | TGI (MALME-3M melanoma): 22.5 µM | GI50 (SNB-75 CNS): 201 nM | TGI (SNB-75 CNS): 7.22 µM | GI50 (EKVX NSCLC): 526 nM | TGI (EKVX NSCLC): 67.2 µM | GI50 (HOP-92 NSCLC): 6.33 µM | TGI (HOP-92 NSCLC): 24.5 µM | GI50 (HL-60(TB) leukemia): 385 nM | TGI (HL-60(TB) leukemia): 13.6 µM | GI50 (MDA-MB-468 breast): 817 nM | TGI (MDA-MB-468 breast): 3.42 µM | GI50 (OVCAR-3 ovarian): 369 nM | TGI (OVCAR-3 ovarian): 4.74 µM | GI50 (SNB-19 CNS): 1730 nM | TGI (SNB-19 CNS): 24 µM | GI50 (CCRF-CEM leukemia): 694 nM | TGI (CCRF-CEM leukemia): > 100 µM | GI50 (DU-145 prostate): 2850 nM | TGI (DU-145 prostate): 15.6 µM | GI50 (ACHN renal): 2450 nM | TGI (ACHN renal): 20.9 µM | GI50 (HCT-116 colon): 462 nM | TGI (HCT-116 colon): 18.5 µM | GI50 (BT-549 breast): 477 nM | TGI (BT-549 breast): 26 µM | GI50 (RXF 393 renal): 645 nM | TGI (RXF 393 renal): 5.25 µM | GI50 (UACC-62 melanoma): 387 nM | TGI (UACC-62 melanoma): 18.9 µM | GI50 (NCI-H226 lung): 3.29 µM | TGI (NCI-H226 lung): 25 µM | GI50 (COLO 205 colon): 1270 nM | TGI (COLO 205 colon): 10.1 µM | GI50 (SK-MEL-28 melanoma): 10.2 µM | TGI (SK-MEL-28 melanoma): 26.4 µM | GI50 (NCI-H460 lung): 406 nM | TGI (NCI-H460 lung): 12.2 µM | GI50 (M14 melanoma): 400 nM | TGI (M14 melanoma): 20.8 µM | GI50 (LOX IMVI melanoma): 620 nM | TGI (LOX IMVI melanoma): 19.8 µM | GI50 (KM12 colon): 475 nM | TGI (KM12 colon): 37.6 µM | GI50 (UACC-257 melanoma): 14.4 µM | TGI (UACC-257 melanoma): 75.4 µM | GI50 (SN12C renal): 842 nM | TGI (SN12C renal): 25.8 µM | GI50 (PC-3 prostate): 2070 nM | TGI (PC-3 prostate): 21.2 µM | GI50 (OVCAR-5 ovarian): 3.28 µM | TGI (OVCAR-5 ovarian): 31.9 µM | GI50 (TK-10 renal): 12.1 µM | TGI (TK-10 renal): 30 µM | GI50 (K-562 leukemia): 307 nM | TGI (K-562 leukemia): > 100 µM | GI50 (MCF7 breast): 424 nM | TGI (MCF7 breast): 20.5 µM | GI50 (HT29 colon): 369 nM | TGI (HT29 colon): 10.1 µM | GI50 (HS 578T breast): 513 nM | TGI (HS 578T breast): 19.5 µM | GI50 (A498 renal): 17.8 µM | TGI (A498 renal): 34.1 µM | GI50 (MDA-MB-231 breast): 724 nM | TGI (MDA-MB-231 breast): 21.2 µM | GI50 (IGROV1 ovarian): 1000 nM | TGI (IGROV1 ovarian): 25.2 µM | GI50 (OVCAR-8 ovarian): 1250 nM | TGI (OVCAR-8 ovarian): 16.6 µM | GI50 (SF-539 CNS): 529 nM | TGI (SF-539 CNS): 4.72 µM | GI50 (HOP-62 NSCLC): 829 nM | TGI (HOP-62 NSCLC): 15.6 µM | GI50 (RPMI-8226 leukemia): 1260 nM | TGI (RPMI-8226 leukemia): 17.3 µM | GI50 (MDA-MB-435): 231 nM | TGI (MDA-MB-435): 680 nM | GI50 (SF-295 CNS): 401 nM | TGI (SF-295 CNS): 15.5 µM | GI50 (SK-OV-3 ovarian): 6.48 µM | TGI (SK-OV-3 ovarian): 23.8 µM | GI50 (T-47D breast): 2850 nM | TGI (T-47D breast): > 100 µM | GI50 (SW-620 colon): 412 nM | TGI (SW-620 colon): 21.9 µM | GI50 (SK-MEL-5 melanoma): 614 nM | TGI (SK-MEL-5 melanoma): 11.1 µM | GI50 (A549 NSCLC): 955 nM | TGI (A549 NSCLC): 26.6 µM | GI50 (NCI-H23 lung): 2230 nM | TGI (NCI-H23 lung): 25 µM | GI50 (786-0 renal): 6.41 µM | TGI (786-0 renal): 22 µM | GI50 (NCI-H522 lung): 412 nM | TGI (NCI-H522 lung): 8.84 µM | GI50 (MOLT-4 leukemia): 570 nM | TGI (MOLT-4 leukemia): 69.8 µM | GI50 (HCT-15 colon): 434 nM | TGI (HCT-15 colon): > 100 µM | GI50 (SK-MEL-2 melanoma): 321 nM | TGI (SK-MEL-2 melanoma): 10.3 µM | GI50 (UO-31 renal): 1700 nM | TGI (UO-31 renal): 21.8 µM
